# Test results taken from patent US20210330611A1, “THERAPY FOR NEUROLOGICAL DISEASES/DISORDERS” (priority 2020, published 2021).
# Counter-ions that a name gives are not always drawn. Like-named read-outs stand apart in the source and are kept apart here.
# What was measured:
# [1] = test system: fibrin- and LPS-induced microglia activation; test: cells; assay type: cell-based, rat; conditions: quadrant by fibrin and LPS inhibition, HTS at 10 μM
# [2] = test system: LPS-induced microglia activation; test: Image-based assay of LPS-induced microglia activation (HTS and dose response); assay type: cell-based, rat; conditions: primary microglia HTS, LPS stimulation, compounds at 10 μM; for inhibition at 10 µM: Rattus norvegicus, Microglia, read-out: LPS % inhibition
# primary rat microglia [3] = test: Cell toxicity (dead cells, size <150 μm2) in coated fibrin (cFib) assay; conditions: primary microglia HTS, fibrin assay, dead cells (size <150 μm2);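 further: share of dead cells sized under 150 µm2 at 10 µM in fibrin-stimulated microglia HTS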
# primary rat microglia [4] = test system: primary rat microglia
# [5] = test system: fibrin-induced microglia activation; test: Image-based assay of fibrin-induced microglia activation (HTS and dose response); assay type: cell-based, rat; conditions: primary microglia HTS, fibrin stimulation, compounds at 10 μM; for inhibition at 10 µM: Rattus norvegicus, Microglia, read-out: Fibrin % inhibition
SMILES,Quadrant (FIG. 5b) [1],inhibition at 10 µM [2],Fibrin % cell toxicity (primary rat microglia [3]),LPS % cell toxicity (primary rat microglia [4]; rat),inhibition at 10 µM [5],LPS % inhibition ([2]; 10 µM),Fibrin % inhibition ([5]; 10 µM),LPS % inhibition [2],LPS % cell toxicity (primary rat microglia [4]),Fibrin % inhibition [5]
CC(=O)N[C@@H](CC(C)C)C(=O)O [Acetyl-l-leucine],Q4,45%,5%,3%,-10%,,,,,
CC(=O)Oc1ccccc1C(=O)O [Acetylsalicylic acid],Q4,17%,1%,0%,-21%,,,,,
CC(=O)NCCCCCC(=O)O [Acexamic Acid],Q4,13%,1%,0%,-25%,,,,,
Nc1nc2c(ncn2COCCO)c(=O)[nH]1 [Aciclovir],Q4,3%,1%,1%,-20%,,,,,
Cc1cnc(C(=O)O)c[n+]1[O-] [Acipimox],Q4,20%,1%,0%,-11%,,,,,
CCN1C[C@]2(COC)[C@H](O)C[C@H](OC)[C@@]34[C@@H]5C[C@@]6(O)[C@H](OC(=O)c7ccccc7)[C@@H]5[C@@](OC(C)=O)([C@@H]([C@H](OC)[C@H]23)[C@@H]14)[C@@H](O)[C@@H]6OC [Aconitine],Q4,12%,0%,0%,-23%,,,,,
CC(=O)Nc1ccc(CC(=O)O)cc1 [Actarit],Q4,9%,1%,0%,11%,,,,,
COc1ccc(-c2ccc3cc(C(=O)O)ccc3c2)cc1C12CC3CC(CC(C3)C1)C2 [Adapalene],Q4,45%,2%,4%,-12%,,,,,
Nc1ncnc2nc[nH]c12 [Adenine],Q4,22%,1%,1%,-7%,,,,,
Nc1ncnc2c1ncn2[C@@H]1O[C@H](COP(=O)(O)O)[C@@H](O)[C@H]1O [Adenosine Phosphate],Q4,,1%,2%,,31%,6%,,,
Nc1ncnc2c1ncn2[C@@H]1O[C@H](COP(=O)(O)O)[C@@H](O)[C@H]1O [Adenosine monophosphate],Q4,,1%,0%,,4%,−30%,,,
Nc1ncnc2c1ncn2[C@@H]1O[C@H](CO)[C@@H](O)[C@H]1O [Adenosine],Q4,3%,1%,1%,-6%,,,,,
CCN(CC)CCOC(=O)C(c1ccccc1)c1ccccc1 [Adiphenine Hydrochloride],Q4,12%,1%,0%,-30%,,,,,
CNCC(=O)c1ccc(O)c(O)c1.Cl [Adrenolone Hydrochloride],Q4,,0%,,,,,32%,0%,28%
CC(=O)NC(Cc1ccccc1)C(=O)O (stereo not shown) [Afalanine],Q4,10%,1%,0%,0%,,,,,
NC(=O)c1ccc([N+](=O)[O-])cc1Cl [Aklomide],Q4,-2%,0%,0%,-18%,,,,,
"CC(N)C(=O)OC(C)(C)Cc1ccc(Cl)cc1.Cl (stereo not shown) [Alaproclate Hydrochloride, Alaproclate]",Q4,,1%,,,,,15%,0%,−7%
C=C1/C(=C\C=C2/CCC[C@]3(C)[C@@H]([C@H](C)CCCC(C)C)CC[C@@H]23)C[C@@H](O)C[C@@H]1O [Alfacalcidol],Q4,4%,1%,0%,-26%,,,,,
"COc1cc2nc(N(C)CCCNC(=O)C3CCCO3)nc(N)c2cc1OC.Cl (stereo not shown) [Alfuzosin Hydrochloride, Alfuzosin]",Q4,,1%,,,,,18%,0%,1%

SMILES,Quadrant (FIG. 5b) [1],inhibition at 10 µM [2],Fibrin % cell toxicity (primary rat microglia [3]),LPS % cell toxicity (primary rat microglia [4]; rat),inhibition at 10 µM [5],LPS % inhibition ([2]; 10 µM),Fibrin % inhibition ([5]; 10 µM),LPS % inhibition [2],LPS % cell toxicity (primary rat microglia [4]),Fibrin % inhibition [5]
CC(CN(C)C)CN1c2ccccc2Sc2ccccc21 (stereo not shown) [Alimemazine],Q4,39%,1%,0%,32%,,,,,
COCCCOc1cc(C[C@@H](C[C@H](N)[C@@H](O)C[C@H](C(=O)NCC(C)(C)C(N)=O)C(C)C)C(C)C)ccc1OC [Aliskiren],Q4,21%,1%,0%,2%,,,,,
NC(=O)NC1NC(=O)NC1=O (stereo not shown) [Allantoin],Q4,6%,1%,0%,-21%,,,,,
C=CCN=C=S [Allylisothiocyanate],Q4,18%,1%,0%,11%,,,,,
C=CCNC(N)=S [Allylthiourea],Q4,11%,1%,0%,-7%,,,,,
O=C1c2c(O)cccc2C([C@@H]2O[C@H](CO)[C@@H](O)[C@H](O)[C@H]2O)c2cc(CO)cc(O)c21 (stereo partly shown) [Aloin],Q4,14%,1%,0%,-35%,,,,,
CC1(C)C(C=C(Cl)Cl)C1C(=O)OC(C#N)c1cccc(Oc2ccccc2)c1 (stereo not drawn) [Alpha-cypermethrin],Q4,11%,1%,0%,-15%,,,,,
Cc1nnc2n1-c1ccc(Cl)cc1C(c1ccccc1)=NC2 [Alprazolam],Q4,20%,1%,0%,33%,,,,,
C=CCSCC1Nc2cc(Cl)c(S(N)(=O)=O)cc2S(=O)(=O)N1 (stereo not shown) [Althiazide],Q4,12%,1%,1%,-11%,,,,,
C=CC[C@]1(O)CC[C@H]2[C@@H]3CCC4=CC(=O)CCC4=C3C=C[C@@]21C [Altrenogest],Q4,15%,1%,0%,6%,,,,,
CCN(CCCc1ccccc1)CCCc1ccccc1 [Alverine],Q4,6%,0%,0%,-17%,,,,,
Nc1c(Br)cc(Br)cc1CN[C@H]1CC[C@H](O)CC1 [Ambroxol Hydrochloride],Q4,9%,0%,0%,-19%,,,,,
NCC[C@H](O)C(=O)N[C@@H]1C[C@H](N)[C@@H](O[C@H]2O[C@H](CN)[C@@H](O)[C@H](O)[C@H]2O)[C@H](O)[C@H]1O[C@H]1O[C@H](CO)[C@@H](O)[C@H](N)[C@H]1O.O=S(=O)(O)O.O=S(=O)(O)O [Amikacin Sulfate],Q4,,1%,,,,,1%,0%,3%
N=C(N)NN [Aminoguanidine],Q4,12%,0%,0%,-25%,,,,,
Nc1ccc(C(=O)NCC(=O)O)cc1 [Aminohippuric Acid],Q4,16%,1%,1%,-7%,,,,,
NCC(O)CC(=O)O (stereo not shown) [Aminohydroxybutyric Acid],Q4,,1%,,,,,17%,0%,−4%
CC(CC(C(N)=O)(c1ccccc1)c1ccccc1)N(C)C (stereo not shown) [Aminopentamide Sulfate],Q4,12%,1%,0%,3%,,,,,
Cc1c(N(C)C)c(=O)n(-c2ccccc2)n1C [Aminophenazone],Q4,20%,1%,1%,-41%,,,,,
Nc1nc(N)c2nc(CNc3ccc(C(=O)N[C@@H](CCC(=O)O)C(=O)O)cc3)cnc2n1 [Aminopterin],Q4,17%,1%,0%,-12%,,,,,
